Laboratory results reported in US8889840B2, “Vascular leakage inhibitor” (Industry-Academic Cooperation Foundation, Yonsei University, priority 2009, dated 2014).
Entries after “also recorded” stand apart in the source; their conditions may differ.

Assays:
[1] = test system: diabetic mouse (DM) model; assay: Retinal vascular permeability in diabetic mouse (DM) model, FITC-dextran; type: in vivo, C57/BL6 mouse; conditions: streptozotocin diabetic mouse, 10 μg into the vitreous body, 24 hours
Procedure: 10 μg of Sac0601 or 10 μg of Sac0504 was injected into the vitreous body of one eye of a diabetic mouse. 24 hours after the injection, 100 μL of FITC-dextran (30 mg/mL in filtered […]) was injected into the left ventricle. Then, the retina was observed under an optical microscope (FIG. 11a) and the fluorescence intensity was quantified (FIG. 11b).
For in vivo analysis of the effect of the synthesized Rk1 derivatives on increased vascular permeability in diabetic retinopathy, a diabetic mouse (DM) model was made by injecting streptozotocin to C57/BL6 mouse. Sac 0601 or Sac 0504 (10 μg) was injected into the vitreous body of the mouse. 24 hours later, 40-kDa FITC-dextran (30 mg/mL in PBS, Sigma) was injected into the left ventricle. After waiting for about 2 minutes for circulation of the tracer, the eyes were taken out and fixed immediately in 4% PFA. Then, the retina was taken out and observed under an optical microscope.

[2] = test system: human umbilical vein endothelial cells (HUVECs); assay: Serum depletion-induced apoptosis of HUVECs, MTT assay and cell morphology; type: cell-based; conditions: serum-free medium, 5 or 10 μg/mL, 24 and 48 hours
Procedure: FIGS. 1a-1b and FIGS. 2a-2d show the result of screening Rk1 analogs that protect human umbilical vein endothelial cells (HUVECs) from serum depletion-induced apoptosis. HUVECs (3×10^5 cells/well) were seeded on a 24-well plate in M199 medium containing 20% fetal bovine serum. The next day, the cells were transferred to a medium containing 5 μg/mL (FIG. 1a) or 10 μg/mL (FIG. 1b) of the synthesized compound. Cell viability was determined by MIT assay 24 hours and 48 hours later. FIGS. 2a-2d show the result of observing cell morphologies. […]
Based on the previous researches performed by the inventors, the synthesized derivatives of Rk1 having steroid backbone and having the ability of inhibiting apoptosis of vascular endothelial cells and inhibiting permeability were screened. First, the ability of inhibiting apoptosis of vascular endothelial cells was measured. […] The next day, the cells were transferred to serum-free 11199 medium containing 5 μg/mL (FIG. 1a) or 10 μg/mL (FIG. 1b) of the compound synthesized in Synthesis Example 1-4, Cell viability was determined by MTT assay (Mosmann T, Journal of ImmunalogiCal Methods 65(1-2): 55-63 (1983); Cory A H, et al., Cancer Communications 3(7): 207-12 (1991)) 24 hours and 48 hours later.

[3] = test system: human retinal endothelial cells (HRECs); assay: Serum depletion-induced apoptosis of HRECs, MTT assay and cell morphology; type: cell-based; conditions: serum-free medium, 0.1-10 μg/mL
Procedure: HRECs (3×10^4 cells/well) were seeded on a 24-well plate in M199 medium containing 20% fetal bovine serum. The next day, the cells were transferred to a medium containing […] Sac0601 (FIG. 4a) or 0.1-10 μg/mL Sac0504 (FIG. 4b). Cell viability was determined by MTT assay 48 hours later. FIGS. 5a-5c show the result of observing cell morphologies.
Human umbilical vein endothelial cells (HUVECs) and human retinal endothelial cells (HRECs) purchased from Cell Systems (USA) were seeded on a 100-mm culture dish in M199 medium (Life Technologies, USA) containing 20% (w/v) fetal bovine serum (FBS, HyClone, Canada), 100 units/mL penicillin (Invitrogen, USA), 100 μg/mL streptomycin (invitrogen, USA), 3 ng/mL basic fibroblast growth factor (bFGF, Upstate Biotechnology, USA) and 5 units/mL heparin and cultured in a 5% CO2 incubator at 37° C.
Also, HRECs were treated with the compounds synthesized in Synthesis Example 5 and MIT assay was performed 48 hours later in the same manner as described above.
Also, the acid compound wherein the methyl ester formed by the introduction of the ester group was hydrolyzed was synthesized to provide improved water solubility and activity. MYT assay was performed for the compounds synthesized in Synthesis Example 6 in the same manner as described above 48 hours after treatment.
Their ability of inhibiting apoptosis was confirmed again for HRECs. HRECs (3×10^4 cells/well) were seeded on a 24-well plate in M199 medium (1 mL) containing 20% fetal bovine serum, Next day, the cells were transferred to serum-free M199 medium containing 0.1-10 μg/ml. Sac060.1 (FIG. 4a) or 0.1-10 μg; mL Sac0504 (FIG. 4b). Cell viability was determined by MTF assay in the same manner as in Test Example 1.
Their ability of inhibiting apoptosis was confirmed again for HRECs.

C57/BL6 mouse = assay: Vascular leakage induced by VEGF in mouse retina, FITC-dextran; type: in vivo; conditions: VEGF 50 ng and compound 10 μg into the vitreous body, 24 hours
Procedure: VEGF (50 ng) and Sac0601 (10 μg) were injected into the vitreous body of C57/BL6 mouse. An excipient (DMSO) was injected into the other eye. 24 hours after the injection, 100 μL FITC-dextran (30 mg/mL in PBS, Sigma) was injected into the left ventricle. After waiting for about 2 minutes for circulation of the tracer, the eyes were taken out and fixed immediately in 4% PFA, Then, the retina was taken out and observed under an optical microscope.

occludin = assay: Occludin western blotting of HREC lysate; type: cell-based, human; conditions: HRECs, pretreatment 60 minutes, then 20 ng/mL VEGF 1 hour
Procedure: In FIG. 8b, confluent HRECs were pretreated with Sac0601 (10 μg/mL) for 60 minutes before treating with 20 ng/mL VEGF (1 hr). Then, cell lysate was subjected to western blotting using anti-occludin antibody.
Confluent HRECs were treated with 10 μg/mL Sac0601 (FIG. 8a, panel A) or Sac0504 (FIG. 8a, panel B) for 1 hour and then with 20 ng/mL. VEGF for 1 hour. Subsequently, the cells were fixed at room temperature for 20 minutes with 4% paraformaldehyde and permeabilized with 0:1% Triton X-100/PBS. Then, the cells were incubated in PBS blocking solution containing 5% normal goat serum and 0.05% Tween-20. The cells were then reacted with anti-occludin antibody (Zymed Laboratories Inc.). The result was visualized with fluorescein-conjugated anti-mouse antibody (Vector Lab.). Also, western blotting was conducted for the cell lysate. The cell lysate was fractionated with SDS-PAGE and then transferred to polyvinyl difluoride membrane. The blocked membrane was reacted with anti-occludin antibody (Zymed Laboratories Inc.) and the immune response band was visualized with the chemiluminescence reagent obtained from Amersham Biosciences, Inc.

SMILES | retinal vascular permeability induced in the DM [1] | ability of inhibiting apoptosis (cell viability by MTT assay) [2] | ability of protecting retinal vascular endothelial cells from apoptosis induced by the removal of serum (MTT) [3] | vascular leakage induced by VEGF (C57/BL6 mouse) | occludin (western blotting) (occludin)
CC(C)CCC[C@@H](C)[C@H]1CC[C@H]2[C@@H]3CC=C4C[C@@H](OC5CCCCO5)CC[C@]4(C)[C@H]3CC[C@]12C (some centres unmarked) [Sac0504] | partially inhibits; also recorded: only limitedly | comparable to that of Rk1 | have the ability of protecting the retinal vascular endothelial cells from apoptosis | – | –
CC(=O)OCC1OC(OC2CCC3(C)C(=CCC4C3CCC3(C)C(C(C)CCCC(C)C)CCC43)C2)C=CC1OC(C)=O (centres unmarked) [Sac0601] | completely inhibits; also recorded: very effectively | comparable to that of Rk1 | have the ability of protecting the retinal vascular endothelial cells from apoptosis | greatly decreases | results in decrease of occludin
